Assay results as given in patent publication US20070037872A1, “Inducing peripheral blood vesel vasodilation” (Mars, Incorporated, priority 2005, published 2007).

Test system: peripheral microvascular endothelial function
Assay: PAT with reactive hyperemia after L-NMMA infusion followed by cocoa beverage
Type: in vivo, human
Description: Peripheral arterial tonometry (PAT) measurements were taken of three volunteers according to the following study. This is a non-invasive technique for examining peripheral microvascular endothelial function. Microvascular endothelial function is assessed by the direct measurement of changes in digital (finger) pulse volume following reactive hyperemia.
On study days, the subjects reported in a fasted state between 7:30 and 9:00 a.m. Body weight, resting heart rate, and blood pressure were all re-measured. […] Subjects then lied down on their backs to acclimatize to ambient conditions. After 30 minutes, a non-invasive, sterile, single-use finger probe was fitted to a finger and a baseline PAT reading was taken and recorded for 10 minutes. The subjects were then subjected to a reactive hyperemia procedure (“RH”) which consisted of a period of blood flow occlusion to the measurement arm using an upper arm blood pressure cuff, pressurized to achieve a supra-systolic level (equivalent to about 60 mm mercury above systolic blood pressure) for 5 minutes. Then the cuff was released and the data recorded for another five minutes. Following this first reading, subjects drank 3 bottles of Cocoa Drink A (total 483 mg). Over the next six hours, the PAT response was monitored at two, four and six hours.
The infusion of L-NMMA occurred over 30 minutes (1mg/kg/min for the first 3 minutes and then 0.2 mg/kg/min for the next 27 minutes). Following infusion of the L-NMMA, 3 bottles of the beverage were fed (483 mg) per subject. Readings were done for baseline, after infusion of L-NMMA and after consumption of cocoa.
Referring to Table 1, RH indicates PAT value following a reactive hyperemia procedure; “baseline” refers to baseline reading prior to occlusion period.
The data supports an NO-independent mechanism of action of the compounds described herein. […] This indicates the blood flow was affected via an NO-independent mechanism. Peripheral blood flow/vasodilation is a function of both NO and NO-independent vasodilators. The endothelium derived NO is one of the most important mediators of vascular tone; however, NO is not the only compound regulating vascular tone. As such, being able to operate via NO-independent mechanisms means that the compound of the invention can exert important vasodilatory effects on the microvasculature which are independent of an intact endothelium. If the endothelium is compromised in any way and simply cannot produce enough NO, the fact that the compounds of the invention act in an endothelium independent fashion offers greater therapeutic benefits, which was previously unexpected.

[1] = Subject #1, Day 11, after 30 min intravenous infusion of L-NMMA
[2] = Subject #5, Day 10, after 30 min intravenous infusion of L-NMMA
[3] = Subject #6, Day 11, after 30 min intravenous infusion of L-NMMA

CNC(=N)NCCC[C@H](N)C(=O)O [LNMMA]
Baseline (baseline PAT reading prior to occlusion period) [1]: 616
RH (PAT value following a reactive hyperemia procedure) [1]: 1.61
Baseline (baseline PAT reading prior to occlusion period) [2]: 689
RH (PAT value following a reactive hyperemia procedure) [2]: 1.42
Baseline (baseline PAT reading prior to occlusion period) [3]: 597
RH (PAT value following a reactive hyperemia procedure) [3]: 1.75
change in the RH value (all three subjects, after L-NMMA infusion): dramatic reduction
